Source: patent US11806340B2, “Methods of diagnosing and treating conduct disorder” (THE CHILDREN'S HOSPITAL OF PHILADELPHIA, priority 2015, dated 2023)

Key:
[1] = tested on: ADHD subjects with CNV in an mGluR network gene; experiment: Open-label Phase Ib clinical trial of NFC-1 in adolescent ADHD subjects with a genetic alteration in an mGluR network gene; format: in vivo, human
Experimental: An open-label Phase Ib clinical trial was conducted to investigate the safety, pharmacokinetics and efficacy of NFC-1 (fasoracetam monohydrate) in adolescent subjects between the ages of 12 and 17 previously diagnosed with ADHD who also had at least one genetic alteration in an mGluR network gene.
The study included 30 ADHD subjects who were between ages 12 and 17, of any ancestry or race, of weight within the 5th to 95th percentile for their age, and otherwise judged to be in good medical health. […] Seventeen of the 30 subjects have a CNV in a tier 1 mGluR network gene, while 7 subjects have a CNV in a tier 2 gene and 6 in a tier 3 gene.
Exclusion criteria comprised subjects suffering from a clinically significant illness, either mental or physical, that, in the investigator's opinion, might confound the results of the study or that might prevent them from completing the study, subjects that are pregnant or nursing, subjects that test positive for illicit drugs of that have a history of drug abuse, subjects that consume alcoholic beverages, or subjects for which the investigator is otherwise concerned regarding their compliance or suitability.
NFC-1 capsules of either 50 mg or 200 mg comprising fasoracetam monohydrate as active ingredient and placebo capsules comprising microcellulose were used for the study. The design of the trial was a phone screening (1 day), enrollment phase (1 to 2 days), a wash-out phase for subjects currently on ADHD medications (1-14 days), pharmacokinetic (PK) assessment (2 days), followed by a dose-escalation phase (35 days) and a follow-up phone visit approximately four weeks after the last dose, for a maximum of 127 days. All ADHD medications were discontinued during the wash-out phase prior to the study. The wash-out period for stimulants was 2-3 days and that for atomoxetine or noradrenergic agonists was 10-12 days. No new ADHD medications were started during the study.
A dose-escalation phase of the trial ran over a 5-week period, after the initial wash-out period and the PK and initial safety assessments. […]

[2] = tested on: dementia-related cognitive impairment; settings: cited from earlier work
[3] = prior human studies; cited from earlier work

Row | SMILES | OCD symptoms ([1]; all eight subjects with OCD symptoms, during therapy) | dermatillomania symptoms (ear scratching, bleeding ulcer) ([1]; one subject with OCD and a history of ear scratching, during therapy) | conduct disorder symptoms, Vanderbilt items 27-40 score ([1]; week 5, one subject meeting conduct disorder criteria, decreased from 16 at week 1 (placebo week), 50-400 mg bid dose escalation) | safety and tolerability ([2]; Phase I-III trials, dementia-related cognitive impairment) | effects on psychiatric symptoms ([2]; Phase III data, cerebral infarct patients and adult dementia patients with cerebrovascular diseases) | efficacy in dementia ([2]; Phase III trials) | bioavailability [3]
1 | O=C1CC[C@H](C(=O)N2CCCCC2)N1 [NFC-1, fasoracetam monohydrate] | improved | reduced | 12 | generally safe and well tolerated | beneficial effects | did not show sufficient efficacy | –
2 | O=C1CC[C@H](C(=O)N2CCCCC2)N1 [Fasoracetam, fasoracetam] | – | – | – | – | – | – | 79%-97%
